# Patent US6403535B1, “Substituted thiazol(in) ylideneamino sulfonylamino (thio)carbonyl-triazolinones” (Bayer Aktiengesellschaft, priority 1998, dated 2002)
# Key:
# Matricaria [1] = assay: Pre-emergence test/greenhouse; type: in vivo; conditions: 504 h, after three weeks, read-out: degree of damage, Matricaria; for pest or weed control at 125 g/ha: 125 g of a.i./ha
# Protocol: (§1) To produce a suitable preparation of active compound, 1 part by weight of active compound is mixed with the stated amount of solvent, the stated amount of emulsifier is added and the concentrate is diluted with water to the desired concentration.
# (§2) Seeds of the test plants are sown in normal soil. After about 24 hours, the soil is sprayed with the preparation of active compound such that the particular amount of active compound desired is applied per unit area. The concentration of the spray liquor is chosen so that the particular amount of active compound desired is applied in 1000 liters of water per hectare.
# (§3) After three weeks, the degree of damage to the plants is rated in % damage in comparison to the development of the untreated control.
# (§4) 0%=no effect (like untreated control)
# Chenopodium [2] = assay: Pre-emergence test/greenhouse; type: in vivo; conditions: after three weeks
# Protocol: as §1, §2, §3, §4
# Veronica [3] = assay: Pre-emergence test/greenhouse; type: in vivo; conditions: 504 h, after three weeks, read-out: degree of damage, Veronica; for pest or weed control at 125 g/ha: 125 g of a.i./ha
# Protocol: as §1, §2, §3, §4
# Amaranthus [4] = assay: Pre-emergence test/greenhouse; type: in vivo; conditions: 504 h, after three weeks, read-out: degree of damage, Amaranthus; for pest or weed control at 125 g/ha: 125 g of a.i./ha
# Protocol: as §1, §2, §3, §4
# weeds [5] = assay: Pre-emergence test, activity against weeds; type: in vivo
# Protocol: as §1, §2, §3, §4
# Echinochloa = assay: Pre-emergence test/greenhouse; type: in vivo; conditions: 504 h, 125 g of a.i./ha, after three weeks, read-out: degree of damage, Echinochloa
# Protocol: as §1, §2, §3, §4
# Solanum = assay: Post-emergence test/greenhouse; type: in vivo; conditions: 504 h, after three weeks, read-out: degree of damage, Solanum; for pest or weed control at 125 g/ha: 125 g of a.i./ha; for pest or weed control at 60 g/ha: 60 g of a.i./ha
# Protocol: as §1
# (§5) Test plants of a height of 5 -15 cm are sprayed with the preparation of active compound such that the particular amounts of active compound desired are applied per unit area. The concentration of the spray liquor is chosen so that the particular amounts of active compound desired are applied in 1000 l of water/ha.
# as §3, §4
# Stellaria = assay: Post-emergence test/greenhouse; type: in vivo; conditions: 504 h, after three weeks, read-out: degree of damage, Stellaria; for pest or weed control at 125 g/ha: 125 g of a.i./ha; for pest or weed control at 60 g/ha: 60 g of a.i./ha
# Protocol: as §1, §5, §3, §4
# Chenopodium [6] = assay: Post-emergence test/greenhouse; type: in vivo; conditions: 504 h, after three weeks, read-out: degree of damage, Chenopodium; for pest or weed control at 125 g/ha: 125 g of a.i./ha; for pest or weed control at 60 g/ha: 60 g of a.i./ha
# Protocol: as §1, §5, §3, §4
# Amaranthus [7] = assay: Post-emergence test/greenhouse; type: in vivo; conditions: 504 h, after three weeks, read-out: degree of damage, Amaranthus; for pest or weed control at 125 g/ha: 125 g of a.i./ha; for pest or weed control at 60 g/ha: 60 g of a.i./ha
# Protocol: as §1, §5, §3, §4
# Abutilon = assay: Post-emergence test/greenhouse; type: in vivo; conditions: 504 h, after three weeks, read-out: degree of damage, Abutilon; for pest or weed control at 125 g/ha: 125 g of a.i./ha; for pest or weed control at 60 g/ha: 60 g of a.i./ha
# Protocol: as §1, §5, §3, §4
# Setaria [8] = assay: Post-emergence test/greenhouse; type: in vivo; conditions: after three weeks
# Protocol: as §1, §5, §3, §4
# weeds [9] = assay: Post-emergence test, activity against weeds; type: in vivo
# Protocol: as §1, §5, §3, §4
# Setaria [10] = assay: Pre-emergence test/greenhouse; type: in vivo; conditions: 250 g of a.i./ha, after three weeks
# Protocol: as §1, §2, §3, §4
# Polygonum = assay: Post-emergence test/greenhouse; type: in vivo; conditions: 60 g of a.i./ha, after three weeks
# Protocol: as §1, §5, §3, §4
# Digitaria = assay: Pre-emergence test/greenhouse; type: in vivo; conditions: 125 g of a.i./ha, after three weeks
# Protocol: as §1, §2, §3, §4
# Matricaria [11] = assay: Post-emergence test/greenhouse; type: in vivo; conditions: 60 g of a.i./ha, after three weeks
# Protocol: as §1, §5, §3, §4
# Veronica [12] = assay: Post-emergence test/greenhouse; type: in vivo; conditions: 60 g of a.i./ha, after three weeks
# Protocol: as §1, §5, §3, §4
SMILES,pest or weed control at 125 g/ha (Matricaria [1]),"degree of damage, Chenopodium (Chenopodium [2]; 125 g of a.i./ha)",pest or weed control at 125 g/ha (Veronica [3]),pest or weed control at 125 g/ha (Amaranthus [4]),activity against weeds (weeds [5]),pest or weed control at 125 g/ha (Echinochloa),pest or weed control at 125 g/ha (Solanum),pest or weed control at 125 g/ha (Stellaria),pest or weed control at 125 g/ha (Chenopodium [6]),pest or weed control at 125 g/ha (Amaranthus [7]),pest or weed control at 125 g/ha (Abutilon),activity against weeds (weeds [9]),pest or weed control at 60 g/ha (Stellaria),pest or weed control at 60 g/ha (Abutilon),other results
C/C=C/c1nn(C(=O)NS(=O)(=O)/N=c2\sccn2CCC)c(=O)n1C1CC1 [Example 51],100%,95%,100%,100%,very strong activity,–,–,–,–,–,–,–,–,–,–
CCCn1ccs/c1=N\S(=O)(=O)NC(=O)n1nc(OC)n(C2CC2)c1=O [Example 29],95%,100%,100%,100%,very strong activity,95%,–,–,–,–,–,–,–,–,–
CCCn1ccs/c1=N\S(=O)(=O)NC(=O)n1nc(OC(C)C)n(C2CC2)c1=O [Example 33],100%,100%,95%,100%,very strong activity,80%,95%,95%,100%,100%,100%,very strong activity,–,–,"degree of damage, Setaria (Setaria [8]; 125 g of a.i./ha): 80%"
CCCn1ccs/c1=N\S(=O)(=O)NC(=O)n1nc(OCC)n(C2CC2)c1=O [Example 56],–,–,–,–,–,–,–,–,–,–,–,–,–,–,"pest or weed control at 250 g/ha (Matricaria [1]; 250 g of a.i./ha): 100%; degree of damage, Chenopodium (Chenopodium [2]; 250 g of a.i./ha): 100%; pest or weed control at 250 g/ha (Veronica [3]; 250 g of a.i./ha): 100%; pest or weed control at 250 g/ha (Amaranthus [4]; 250 g of a.i./ha): 100%; degree of damage, Setaria (Setaria [10]): 100%"
CCCn1ccs/c1=N\S(=O)(=O)NC(=O)n1nc(OC(C)C)n(C)c1=O [Example 9],–,–,–,–,–,–,–,–,–,–,–,very strong activity,90%,90%,pest or weed control at 60 g/ha (Chenopodium [6]): 80%; pest or weed control at 60 g/ha (Amaranthus [7]): 90%
CC(C)Oc1nn(C(=O)NS(=O)(=O)/N=c2/sccn2CCCF)c(=O)n1C [Example 125],100%,95%,100%,70%,very strong activity,90%,–,–,–,–,–,very strong activity,90%,90%,"melting point: 170 °C; pest or weed control at 60 g/ha (Solanum): 90%; degree of damage, Polygonum (Polygonum): 90%"
CCCn1ccs/c1=N\S(=O)(=O)NC(=O)n1nc(OCC2CC2)n(C)c1=O [Example 48],–,–,–,–,–,–,80%,80%,100%,95%,80%,very strong activity,–,–,–
CCCn1ccs/c1=N\S(=O)(=O)NC(=O)n1nc(OCC)n(C2CC2)c1=O [Example 30],100%,100%,100%,100%,very strong activity,95%,–,–,–,–,–,–,–,–,"degree of damage, Digitaria (Digitaria): 90%"
CCCn1ccs/c1=N\S(=O)(=O)NC(=O)n1nc(C2CC2)n(C)c1=O [Example 41],–,–,–,–,–,–,90%,95%,–,90%,90%,very strong activity,–,–,"degree of damage, Setaria (Setaria [8]; 125 g of a.i./ha): 70%"
CCCn1ccs/c1=N\S(=O)(=O)NC(=O)n1nc(OCC)n(CC)c1=O [Example 49],–,–,–,–,–,–,95%,95%,100%,100%,70%,very strong activity,–,–,–
CC(C)Oc1nn(C(=O)NS(=O)(=O)/N=c2\sccn2CCCF)c(=O)n1C1CC1 [Example 131],100%,95%,95%,100%,very strong activity,80%,–,–,–,–,–,very strong activity,95%,90%,"melting point: 154 °C; degree of damage, Matricaria (Matricaria [11]): 95%; pest or weed control at 60 g/ha (Chenopodium [6]): 95%; degree of damage, Veronica (Veronica [12]): 90%; pest or weed control at 60 g/ha (Amaranthus [7]): 100%"
CCCc1nn(C(=O)NS(=O)(=O)/N=c2\sccn2CCC)c(=O)n1C [Example 2],–,–,–,–,–,–,–,–,–,–,–,very strong activity,90%,90%,"pest or weed control at 60 g/ha (Solanum): 95%; pest or weed control at 60 g/ha (Amaranthus [7]): 90%; degree of damage, Setaria (Setaria [8]; 60 g of a.i./ha): 90%"
CCCn1ccs/c1=N\S(=O)(=O)NC(=O)n1nc(OC2CC2)n(C2CC2)c1=O [Example 34],–,–,–,–,–,–,100%,100%,100%,100%,95%,very strong activity,–,–,"degree of damage, Setaria (Setaria [8]; 125 g of a.i./ha): 70%"
CCOc1nn(C(=O)NS(=O)(=O)/N=c2\sccn2CCCF)c(=O)n1C1CC1 [Example 130],100%,100%,100%,100%,very strong activity,100%,–,–,–,–,–,very strong activity,95%,95%,"melting point: 180 °C; degree of damage, Matricaria (Matricaria [11]): 100%; pest or weed control at 60 g/ha (Chenopodium [6]): 100%; degree of damage, Veronica (Veronica [12]): 100%; pest or weed control at 60 g/ha (Amaranthus [7]): 100%"
CCCc1nn(C(=O)NS(=O)(=O)/N=c2\sccn2CCC)c(=O)n1C1CC1 [Example 55],–,–,–,–,–,–,90%,100%,100%,100%,95%,very strong activity,–,–,–
